Data published in patent publication US11214594B2, “Antimicrobial peptide having synergistic antibacterial effect with antibiotics on multidrug resistant bacteria, and use thereof” (priority 2016, dated 2022).
Values after ≈ are worked out from the molar mass of the structure shown. Where two headings read alike, the source gives them in different places. Where a SMILES comes first, the peptide text is derived from it.

Assays:
E. coli [1] = assay: microbe, parasite or virus in culture; type: cell-based, Escherichia coli; details: 16 h
Procedure, shortened: (§1)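 Broth microdilution in MH medium: bacterial strains diluted to 2×10^6 CFU were mixed with equal volumes of peptide serially diluted twofold in MH medium.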

MDREC 1229 [2] = assay: microbe, parasite or virus in culture; type: cell-based, Escherichia coli
Procedure, shortened: as §1

P. aeruginosa = assay: microbe, parasite or virus in culture; type: cell-based, Pseudomonas aeruginosa
Procedure, shortened: as §1

A. baumannii [3] = assay: microbe, parasite or virus in culture; type: cell-based, Acinetobacter baumannii
Procedure, shortened: as §1

MDRAB 12035 [4] = assay: microbe, parasite or virus in culture; type: cell-based, Acinetobacter baumannii
Procedure, shortened: as §1

MDRST 8009 = type: cell-based, Salmonella typhimurium; details: agent alone
Procedure, shortened: as §1

B. subtilis = assay: microbe, parasite or virus in culture; type: cell-based, Bacillus subtilis
Procedure, shortened: as §1

S. epidermidis = assay: microbe, parasite or virus in culture; type: cell-based, Staphylococcus epidermidis
Procedure, shortened: as §1

S. aureus = assay: microbe, parasite or virus in culture; type: cell-based, Staphylococcus aureus
Procedure, shortened: as §1

E. coli [5] = assay: MIC of antibiotic during combined treatment with antimicrobial peptide; type: cell-based, Escherichia coli; details: for Antibiotic MIC, Erythromycin / Antibiotic MIC, Linezolid / Antibiotic MIC, Vancomycin: E. coli
Procedure, shortened: (§2)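 Antibiotic diluted in MH medium, dispensed per well with peptide; setup repeated with roles reversed; MIC read per combination.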

A. baumannii [6] = assay: as above; type: cell-based, Acinetobacter baumannii; details: for Antibiotic MIC, Erythromycin / Antibiotic MIC, Linezolid / Antibiotic MIC, Vancomycin: A. baumannii
Procedure, shortened: as §2

E. coli [7] = type: cell-based, Escherichia coli; details: E. coli
Procedure, shortened: (§3)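 Antibiotic MIC came from antibiotic dilutions added to bacteria (2×10^6 CFU/ml, MH medium) already combined with peptide serially diluted 2:1 from its own MIC. Swapping the roles of the two agents gave the peptide MIC.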

MDREC 1229 [8] = type: cell-based, Escherichia coli
Procedure, shortened: as §3

A. baumannii [9] = assay: MIC of antimicrobial peptide during combined treatment with antibiotic; type: cell-based, Acinetobacter baumannii
Procedure, shortened: as §3

MDRAB 12035 [10] = assay: as above; type: cell-based, Acinetobacter baumannii
Procedure, shortened: as §3

[11] = combined with peptide at 1 μg/ml
[12] = combined with peptide at 2 μg/ml
[13] = combined with peptide at 4 μg/ml
[14] = combined with peptide at 6 μg/ml
[15] = combined with peptide at 8 μg/ml
[16] = combined with peptide at 16 μg/ml
[17] = combined with peptide at 32 μg/ml
[18] = combined with peptide at 64 μg/ml
[19] = linezolid 64 μg/ml (Conc./MIC 1/8)
[20] = linezolid 512 μg/ml (Conc./MIC 1)
[21] = vancomycin 512 μg/ml (Conc./MIC 1/2)
[22] = vancomycin 1024 μg/ml (Conc./MIC 1)
[23] = erythromycin 4 μg/ml (Conc./MIC 1/8)
[24] = erythromycin 8 μg/ml (Conc./MIC 1/4)
[25] = erythromycin 16 μg/ml (Conc./MIC 1/2)
[26] = erythromycin 32 μg/ml (Conc./MIC 1)

## CC[C@H](C)[C@H](NC(=O)[C@H](CCCCN)NC(=O)[C@H](Cc1c[nH]c2ccccc12)NC(=O)[C@@H](N)CCCNC(=N)N)C(=O)N[C@@H](Cc1ccccc1)C(=O)N[C@@H](CCCCN)C(=O)N[C@@H](CCCCN)C(=O)N[C@H](C(=O)N1CCC[C@H]1C(=O)N[C@@H](CCCCN)C(=O)N[C@@H](Cc1ccccc1)C(=O)N[C@@H](CC(C)C)C(=O)N[C@@H](Cc1c[nH]cn1)C(=O)N[C@@H](CCC(=O)O)C(=O)N[C@@H](C)C(=O)N[C@@H](CCCCN)C(=O)N[C@@H](CCCCN)C(=O)N[C@@H](Cc1ccccc1)C(N)=O)[C@@H](C)CC [PapMA-11, RWK IFK KIP KFL HEA KKF-NH2] (H-RWKIFKKIPKFLHEAKKF-NH2; N-terminus assumed)
E. coli [1]
  Minimal inhibitory concentration MIC: 64 µg/mL (≈ 27.3 µM)
MDREC 1229 [2]
  Minimal inhibitory concentration MIC: 64 µg/mL (≈ 27.3 µM)
  Peptide MIC, peptide alone: 64 µg/mL
P. aeruginosa
  Minimal inhibitory concentration MIC: 128 µg/mL (≈ 54.6 µM)
A. baumannii [3]
  Minimal inhibitory concentration MIC: 64 µg/mL (≈ 27.3 µM)
  Peptide MIC, peptide alone: 64 µg/mL
MDRAB 12035 [4]
  Minimal inhibitory concentration MIC: 64 µg/mL (≈ 27.3 µM)
  Peptide MIC, peptide alone: 64 µg/mL
MDRST 8009
  Minimal inhibitory concentration MIC: 64 µg/mL (≈ 27.3 µM)
B. subtilis
  Minimal inhibitory concentration MIC: >128 µg/mL
S. epidermidis
  Minimal inhibitory concentration MIC: >128 µg/mL
S. aureus
  Minimal inhibitory concentration MIC: >128 µg/mL
E. coli [5]; E. coli and MDREC1229
  Synergistic effect of antibacterial activity with existing antibiotics compared with PapMA-1: level similar to that of the PapMA-1 peptide
E. coli [5]; erythromycin combined with peptide at 1 μg/ml
  Antibiotic MIC, Erythromycin: 64 µg/mL
E. coli [5]; erythromycin combined with peptide at 2 μg/ml
  Antibiotic MIC, Erythromycin: 64 µg/mL
E. coli [5]; erythromycin combined with peptide at 4 μg/ml
  Antibiotic MIC, Erythromycin: 16 µg/mL
E. coli [5]; erythromycin combined with peptide at 6 μg/ml
  Antibiotic MIC, Erythromycin: 4 µg/mL
E. coli [5]; erythromycin combined with peptide at 8 μg/ml
  Antibiotic MIC, Erythromycin: 1 µg/mL
E. coli [5]; erythromycin combined with peptide at 16 μg/ml
  Antibiotic MIC, Erythromycin: 0.25 µg/mL
E. coli [5]; erythromycin combined with peptide at 32 μg/ml
  Antibiotic MIC, Erythromycin: 0.125 µg/mL
E. coli [5]; erythromycin combined with peptide at 64 μg/ml
  Antibiotic MIC, Erythromycin: 0 µg/mL
E. coli [5]; linezolid combined with peptide at 1 μg/ml
  Antibiotic MIC, Linezolid: >128 µg/mL
E. coli [5]; linezolid combined with peptide at 2 μg/ml
  Antibiotic MIC, Linezolid: 128 µg/mL
E. coli [5]; linezolid combined with peptide at 4 μg/ml
  Antibiotic MIC, Linezolid: 128 µg/mL
E. coli [5]; linezolid combined with peptide at 6 μg/ml
  Antibiotic MIC, Linezolid: 32 µg/mL
E. coli [5]; linezolid combined with peptide at 8 μg/ml
  Antibiotic MIC, Linezolid: 32 µg/mL
E. coli [5]; linezolid combined with peptide at 16 μg/ml
  Antibiotic MIC, Linezolid: 16 µg/mL
E. coli [5]; linezolid combined with peptide at 32 μg/ml
  Antibiotic MIC, Linezolid: 8 µg/mL
E. coli [5]; linezolid combined with peptide at 64 μg/ml
  Antibiotic MIC, Linezolid: 0 µg/mL
E. coli [5]; vancomycin combined with peptide at 1 μg/ml
  Antibiotic MIC, Vancomycin: >128 µg/mL
E. coli [5]; vancomycin combined with peptide at 2 μg/ml
  Antibiotic MIC, Vancomycin: >128 µg/mL
E. coli [5]; vancomycin combined with peptide at 4 μg/ml
  Antibiotic MIC, Vancomycin: >128 µg/mL
E. coli [5]; vancomycin combined with peptide at 6 μg/ml
  Antibiotic MIC, Vancomycin: 32 µg/mL
E. coli [5]; vancomycin combined with peptide at 8 μg/ml
  Antibiotic MIC, Vancomycin: 16 µg/mL
E. coli [5]; vancomycin combined with peptide at 16 μg/ml
  Antibiotic MIC, Vancomycin: 8 µg/mL
E. coli [5]; vancomycin combined with peptide at 32 μg/ml
  Antibiotic MIC, Vancomycin: 4 µg/mL
E. coli [5]; vancomycin combined with peptide at 64 μg/ml
  Antibiotic MIC, Vancomycin: 0 µg/mL
A. baumannii [6]; A. baumannii and MDRAB 12035
  Synergistic effect of antibacterial activity with existing antibiotics compared with PapMA-1: level similar to that of PapMA-1 peptide
A. baumannii [6]; [11]
  Antibiotic MIC, Erythromycin: 32 µg/mL
  Antibiotic MIC, Linezolid: 128 µg/mL
  Antibiotic MIC, Vancomycin: >128 µg/mL
A. baumannii [6]; [12]
  Antibiotic MIC, Erythromycin: 16 µg/mL
  Antibiotic MIC, Linezolid: 128 µg/mL
  Antibiotic MIC, Vancomycin: 128 µg/mL
A. baumannii [6]; [13]
  Antibiotic MIC, Erythromycin: 4 µg/mL
  Antibiotic MIC, Linezolid: 64 µg/mL
  Antibiotic MIC, Vancomycin: 32 µg/mL
A. baumannii [6]; [14]
  Antibiotic MIC, Erythromycin: 1 µg/mL
  Antibiotic MIC, Linezolid: 32 µg/mL
  Antibiotic MIC, Vancomycin: 16 µg/mL
A. baumannii [6]; [15]
  Antibiotic MIC, Erythromycin: 0.5 µg/mL
  Antibiotic MIC, Linezolid: 16 µg/mL
  Antibiotic MIC, Vancomycin: 8 µg/mL
A. baumannii [6]; [16]
  Antibiotic MIC, Erythromycin: 0.25 µg/mL
  Antibiotic MIC, Linezolid: 8 µg/mL
  Antibiotic MIC, Vancomycin: 4 µg/mL
A. baumannii [6]; [17]
  Antibiotic MIC, Erythromycin: 0.125 µg/mL
  Antibiotic MIC, Linezolid: 2 µg/mL
  Antibiotic MIC, Vancomycin: 1 µg/mL
A. baumannii [6]; [18]
  Antibiotic MIC, Erythromycin: 0 µg/mL
  Antibiotic MIC, Linezolid: 0 µg/mL
  Antibiotic MIC, Vancomycin: 0 µg/mL
E. coli [7]; with Erythromycin […] (Conc./MIC 1)
  Peptide MIC: 0 µg/mL
E. coli [7]; with Linezolid […] (Conc./MIC 1)
  Peptide MIC: 0 µg/mL
E. coli [7]; with Vancomycin 1024 μg/ml (Conc./MIC 1)
  Peptide MIC: 0 µg/mL
MDREC 1229 [8]; erythromycin 32 μg/ml (Conc./MIC 1/8)
  Peptide MIC during treatment with antibiotic: 4 µg/mL
MDREC 1229 [8]; erythromycin 64 μg/ml (Conc./MIC 1/4)
  Peptide MIC during treatment with antibiotic: 2 µg/mL
MDREC 1229 [8]; erythromycin […] (Conc./MIC 1)
  Peptide MIC during treatment with antibiotic: 0 µg/mL
MDREC 1229 [8]; erythromycin […] (Conc./MIC 1/2)
  Peptide MIC during treatment with antibiotic: 1 µg/mL
MDREC 1229 [8]; [19]
  Peptide MIC during treatment with antibiotic: 8 µg/mL
MDREC 1229 [8]; [20]
  Peptide MIC during treatment with antibiotic: 0 µg/mL
MDREC 1229 [8]; linezolid […] (Conc./MIC 1/2)
  Peptide MIC during treatment with antibiotic: 2 µg/mL
MDREC 1229 [8]; linezolid […] (Conc./MIC 1/4)
  Peptide MIC during treatment with antibiotic: 4 µg/mL
MDREC 1229 [8]; [21]
  Peptide MIC during treatment with antibiotic: 2 µg/mL
MDREC 1229 [8]; [22]
  Peptide MIC during treatment with antibiotic: 1 µg/mL
MDREC 1229 [8]; vancomycin […] (Conc./MIC 1/4)
  Peptide MIC during treatment with antibiotic: 4 µg/mL
MDREC 1229 [8]; vancomycin […] (Conc./MIC 1/8)
  Peptide MIC during treatment with antibiotic: 8 µg/mL
A. baumannii [9]; [23]
  Peptide MIC during treatment with antibiotic: 4 µg/mL
A. baumannii [9]; [24]
  Peptide MIC during treatment with antibiotic: 4 µg/mL
A. baumannii [9]; [25]
  Peptide MIC during treatment with antibiotic: 2 µg/mL
A. baumannii [9]; [26]
  Peptide MIC during treatment with antibiotic: 0 µg/mL
A. baumannii [9]; linezolid 32 μg/ml (Conc./MIC 1/8)
  Peptide MIC during treatment with antibiotic: 8 µg/mL
A. baumannii [9]; linezolid 64 μg/ml (Conc./MIC 1/4)
  Peptide MIC during treatment with antibiotic: 4 µg/mL
A. baumannii [9]; linezolid […] (Conc./MIC 1)
  Peptide MIC during treatment with antibiotic: 0 µg/mL
A. baumannii [9]; linezolid […] (Conc./MIC 1/2)
  Peptide MIC during treatment with antibiotic: 2 µg/mL
A. baumannii [9]; [21]
  Peptide MIC during treatment with antibiotic: 0.25 µg/mL
A. baumannii [9]; [22]
  Peptide MIC during treatment with antibiotic: 0 µg/mL
A. baumannii [9]; vancomycin […] (Conc./MIC 1/4)
  Peptide MIC during treatment with antibiotic: 0.5 µg/mL
A. baumannii [9]; vancomycin […] (Conc./MIC 1/8)
  Peptide MIC during treatment with antibiotic: 2 µg/mL
MDRAB 12035 [10]; [23]
  Peptide MIC during treatment with erythromycin: 4 µg/mL
MDRAB 12035 [10]; [24]
  Peptide MIC during treatment with erythromycin: 4 µg/mL
MDRAB 12035 [10]; [25]
  Peptide MIC during treatment with erythromycin: 2 µg/mL
MDRAB 12035 [10]; [26]
  Peptide MIC during treatment with erythromycin: 0 µg/mL
MDRAB 12035 [10]; [19]
  Peptide MIC during treatment with linezolid: 4 µg/mL
MDRAB 12035 [10]; [20]
  Peptide MIC during treatment with linezolid: 0 µg/mL
MDRAB 12035 [10]; linezolid […] (Conc./MIC 1/2)
  Peptide MIC during treatment with linezolid: 2 µg/mL
MDRAB 12035 [10]; linezolid […] (Conc./MIC 1/4)
  Peptide MIC during treatment with linezolid: 2 µg/mL
MDRAB 12035 [10]; [21]
  Peptide MIC during treatment with vancomycin: 1 µg/mL
MDRAB 12035 [10]; [22]
  Peptide MIC during treatment with vancomycin: 1 µg/mL
MDRAB 12035 [10]; vancomycin […] (Conc./MIC 1/4)
  Peptide MIC during treatment with vancomycin: 2 µg/mL
MDRAB 12035 [10]; vancomycin […] (Conc./MIC 1/8)
  Peptide MIC during treatment with vancomycin: 2 µg/mL
